± gives the standard deviation of the averaged measurements.
Key:
Assay in all cases: level (log10 ratio to DMSO vehicle control); higher = higher biomarker level / cell amount than vehicle control
[1] = compound: O=S(=O)(Cl)C(F)(F)C(F)(F)C(F)(F)C(F)(F)C(F)(F)C(F)(F)C(F)(F)C(F)(F)F [Perfluoro-1-octanesulfonyl chloride]; details: in DMSO
Protocol: (§1)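 BioMAP Diversity Plus panel of 12 human primary cell co-culture systems (3C, 4H, LPS, SAg, BT, BF4T, BE3C, CASM3C, HDF3CGF, KF3CT, MyoF, Mphg). Compounds were added 1 h before stimulation and left for 24 h (MyoF 48 h; BT 72 h for soluble read-outs or 6 d for IgG). Biomarkers were read by ELISA, cytotoxicity by SRB, PBMC viability and proliferation by Alamar Blue. Each well value was divided by the mean of 8 DMSO control wells on the same plate and log10 transformed; duplicate blinded samples were tested at 4 concentrations.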

[2] = compound: FC(F)(F)C(F)(F)C(F)(F)CC1CO1 [1H,1H-Heptafluorobutyl epoxide]; details: in DMSO
Protocol: as §1

Heptafluorobutyl iodide = compound: FC(F)(F)C(F)(F)C(F)(F)CI [Heptafluorobutyl iodide]; details: in DMSO
Protocol: as §1

Nonafluoropentanamide = compound: NC(=O)C(F)(F)C(F)(F)C(F)(F)C(F)(F)F [Nonafluoropentanamide]; details: in DMSO
Protocol: as §1

[3] = compound: C=CC(=O)OCC(F)(F)C(F)(F)C(F)(F)COC(=O)C=C [1H,1H,5H,5H-Perfluoro-1,5-pentanediol diacrylate]; details: 6700 nM; in DMSO
Protocol: as §1

[4] = compound: FC(F)(F)C(F)(F)C(F)(F)C(F)(F)C(F)(F)C(F)(F)CC1CO1 [3-(Perfluorohexyl)-1,2-epoxypropane]; details: in DMSO
Protocol: as §1

[5] = compound: C=C(C)C(=O)OCCC(F)(F)C(F)(F)C(F)(F)C(F)(F)C(F)(F)C(F)(F)F [6:2 Fluorotelomer methacrylate]; details: in DMSO
Protocol: as §1

Row | Test System | level (log10) ([1]; 6700 nM) | level (log10) ([1]; 20000 nM) | level (log10) ([1]; 60000 nM) | level (log10) ([2]; 6700 nM) | level (log10) ([2]; 20000 nM) | level (log10) ([2]; 60000 nM) | level (log10) (Heptafluorobutyl iodide; 6700 nM) | level (log10) (Heptafluorobutyl iodide; 20000 nM) | level (log10) (Heptafluorobutyl iodide; 60000 nM) | level (log10) (Nonafluoropentanamide; 6700 nM) | level (log10) (Nonafluoropentanamide; 20000 nM) | level (log10) (Nonafluoropentanamide; 60000 nM) | level (log10) [3] | level (log10) ([4]; 6700 nM) | level (log10) ([4]; 20000 nM) | level (log10) ([4]; 60000 nM) | level (log10) ([5]; 6700 nM) | level (log10) ([5]; 20000 nM) | level (log10) ([5]; 60000 nM)
1 | BT:sIL-17F | 0.062 ± 0.054 | 0.0385 ± 0.0035 | 0.0705 ± 0.012 | 0.0235 ± 0.015 | -0.0505 ± 0.063 | 0.0025 ± 0.1 | 0.033 ± 0.078 | 0.031 ± 0.016 | 0.029 ± 0.033 | -0.0305 ± 0.12 | -0.0695 ± 0.14 | -0.101 ± 0.15 | -1 ± 0.04 | -0.051 ± 0.15 | -0.012 ± 0.096 | -0.0315 ± 0.079 | -0.0095 ± 0.032 | -0.023 ± 0.02 | -0.046 ± 0.014
2 | BF4T:CD54/ICAM-1 | -0.011 ± 0.0085 | -0.023 | -0.084 | -0.027 ± 0.016 | -0.003 ± 0.035 | -0.0245 ± 0.018 | -0.012 ± 0.011 | -0.008 ± 0.016 | -0.003 ± 0.031 | -0.003 ± 0.0028 | -0.0005 ± 0.00071 | 0.007 ± 0.0099 | -0.084 ± 0.011 | -0.002 ± 0.0057 | 0.0025 ± 0.0021 | 0.007 | -0.019 ± 0.0042 | -0.0045 ± 0.026 | -0.0195 ± 0.0035
3 | 4H:VEGFR2 | 0.0185 ± 0.019 | 0.014 ± 0.0085 | 0.0265 ± 0.0078 | -0.012 ± 0.0071 | 0 ± 0.017 | 0.031 ± 0.11 | -0.0075 ± 0.005 | 0.0155 ± 0.063 | 0.0445 ± 0.036 | -0.0435 ± 0.0078 | -0.0135 ± 0.029 | -0.015 | -0.0225 ± 0.035 | -0.0015 ± 0.019 | 0.0235 ± 0.011 | 0.017 ± 0.014 | -0.047 ± 0.034 | -0.0305 ± 0.00071 | -0.0265 ± 0.039
4 | LPS:M-CSF | -0.079 ± 0.045 | -0.0105 ± 0.025 | 0.116 ± 0.035 | -0.019 ± 0.02 | 0.0005 ± 0.036 | 0.0255 ± 0.053 | -0.0225 ± 0.0064 | 0.007 ± 0.023 | 0.0065 ± 0.011 | 0.0065 ± 0.07 | -0.0075 ± 0.04 | -0.011 ± 0.0042 | -0.0655 ± 0.026 | -0.004 ± 0.0099 | -0.013 ± 0.0028 | 0.0055 ± 0.0035 | 0.0215 ± 0.025 | 0.0305 ± 0.0064 | 0.0275 ± 0.028
5 | LPS:CD141/Thrombomodulin | -0.035 ± 0.025 | -0.028 ± 0.034 | 0.083 ± 0.014 | 0.059 ± 0.0071 | 0.039 ± 0.079 | 0.019 ± 0.033 | 0.0135 ± 0.14 | 0.0175 ± 0.14 | 0.0485 ± 0.1 | 0.005 ± 0.027 | 0.018 ± 0.035 | 0.0435 ± 0.035 | 0.0505 ± 0.054 | -0.0405 ± 0.0035 | -0.038 ± 0.0099 | -0.0545 ± 0.0064 | -0.039 ± 0.025 | -0.0465 ± 0.04 | -0.091 ± 0.017
6 | SAg:CD38 | -0.0105 ± 0.00071 | -0.018 ± 0.0014 | -0.058 ± 0.027 | 0.0025 ± 0.012 | -0.025 ± 0.0085 | -0.0125 ± 0.03 | -0.0205 ± 0.021 | -0.027 ± 0.016 | -0.017 ± 0.031 | -0.0345 ± 0.037 | -0.0265 ± 0.04 | -0.032 ± 0.028 | -0.0655 ± 0.046 | 0.001 ± 0.014 | 0.0035 ± 0.00071 | -0.015 ± 0.0042 | -0.0075 ± 0.011 | 0.015 ± 0.038 | 0.0005 ± 0.029
7 | BF4T:CD106/VCAM-1 | -0.0255 ± 0.029 | -0.04 ± 0.028 | -0.126 ± 0.088 | -0.0055 ± 0.015 | -0.015 ± 0.017 | -0.021 ± 0.0071 | -0.016 ± 0.0057 | -0.021 ± 0.0042 | 0.017 ± 0.045 | -0.015 ± 0.059 | -0.0485 ± 0.03 | -0.014 ± 0.017 | -0.0685 ± 0.026 | 0.0195 ± 0.0021 | 0.017 ± 0.0028 | 0.0275 ± 0.028 | 0.008 ± 0.079 | 0.039 | -0.0215 ± 0.028
8 | BF4T:SRB | -0.0015 ± 0.005 | -0.011 ± 0.0014 | -0.251 ± 0.0085 | -0.004 ± 0.0057 | 0.0005 ± 0.005 | 0.0025 ± 0.005 | 0.001 ± 0.0028 | -0.002 ± 0.0071 | 0.0015 ± 0.0064 | -0.018 ± 0.0042 | -0.017 ± 0.016 | -0.019 ± 0.0028 | -0.005 ± 0.0042 | -0.008 ± 0.011 | -0.0105 ± 0.0078 | 0.0015 ± 0.019 | 0.002 ± 0.0071 | -0.003 ± 0.0071 | -0.0035 ± 0.012

— the supplement of paper PMC10331698
